Data: ChEMBL document CHEMBL1681652, “Synthesis and evaluation of 2-phenyl-1,4-butanediamine-based CCR5 antagonists for the treatment of HIV-1” (Bioorg Med Chem Lett, 2011)
Blank lines part the entries; values can stand above or below the compound they belong to.

How the values were obtained:
[1] = tested on: Human immunodeficiency virus 1; test: Antiviral activity against HIV1 Ba-L infected in human HOS cells expressing CCR5 after 4 days; format: functional, organism-based
[2] = molecular target: Voltage-gated inwardly rectifying potassium channel KCNH2 (Homo sapiens, UniProt Q12809); test: Displacement of labeled dofetilide from human ERG
[3] = tested on: Human immunodeficiency virus 1; test: Antiviral activity against HIV1 Ba-L infected in human PBL cells assessed as reverse transcriptase activity after 7 days; format: functional, organism-based; conditions: Human immunodeficiency virus 1, Ba-L, 168 h
[4] = Half life in human hepatocytes; format: ADME, cell-based, Liver, Hepatocyte
[5] = Oral bioavailability in Sprague-Dawley rat at 1 mg/kg; format: ADME, organism-based; conditions: in vivo
[6] = Half life in rat hepatocytes; format: ADME, cell-based, Liver, Hepatocyte
Rattus norvegicus = test: AUC in Sprague-Dawley rat at 1 mg/kg, iv and po; format: ADME, organism-based, Plasma; design: dose 1 mg/kg, route oral; unit not given here; conditions: in vivo
[7] = Apparent permeability across MDCK cells; format: ADME, cell-based, Canis lupus familiaris; conditions: dog
[8] = Human immunodeficiency virus 1, Ba-L, HOS, 96 h

Chain of Voltage-gated inwardly rectifying potassium channel KCNH2 (Q12809 whole entry): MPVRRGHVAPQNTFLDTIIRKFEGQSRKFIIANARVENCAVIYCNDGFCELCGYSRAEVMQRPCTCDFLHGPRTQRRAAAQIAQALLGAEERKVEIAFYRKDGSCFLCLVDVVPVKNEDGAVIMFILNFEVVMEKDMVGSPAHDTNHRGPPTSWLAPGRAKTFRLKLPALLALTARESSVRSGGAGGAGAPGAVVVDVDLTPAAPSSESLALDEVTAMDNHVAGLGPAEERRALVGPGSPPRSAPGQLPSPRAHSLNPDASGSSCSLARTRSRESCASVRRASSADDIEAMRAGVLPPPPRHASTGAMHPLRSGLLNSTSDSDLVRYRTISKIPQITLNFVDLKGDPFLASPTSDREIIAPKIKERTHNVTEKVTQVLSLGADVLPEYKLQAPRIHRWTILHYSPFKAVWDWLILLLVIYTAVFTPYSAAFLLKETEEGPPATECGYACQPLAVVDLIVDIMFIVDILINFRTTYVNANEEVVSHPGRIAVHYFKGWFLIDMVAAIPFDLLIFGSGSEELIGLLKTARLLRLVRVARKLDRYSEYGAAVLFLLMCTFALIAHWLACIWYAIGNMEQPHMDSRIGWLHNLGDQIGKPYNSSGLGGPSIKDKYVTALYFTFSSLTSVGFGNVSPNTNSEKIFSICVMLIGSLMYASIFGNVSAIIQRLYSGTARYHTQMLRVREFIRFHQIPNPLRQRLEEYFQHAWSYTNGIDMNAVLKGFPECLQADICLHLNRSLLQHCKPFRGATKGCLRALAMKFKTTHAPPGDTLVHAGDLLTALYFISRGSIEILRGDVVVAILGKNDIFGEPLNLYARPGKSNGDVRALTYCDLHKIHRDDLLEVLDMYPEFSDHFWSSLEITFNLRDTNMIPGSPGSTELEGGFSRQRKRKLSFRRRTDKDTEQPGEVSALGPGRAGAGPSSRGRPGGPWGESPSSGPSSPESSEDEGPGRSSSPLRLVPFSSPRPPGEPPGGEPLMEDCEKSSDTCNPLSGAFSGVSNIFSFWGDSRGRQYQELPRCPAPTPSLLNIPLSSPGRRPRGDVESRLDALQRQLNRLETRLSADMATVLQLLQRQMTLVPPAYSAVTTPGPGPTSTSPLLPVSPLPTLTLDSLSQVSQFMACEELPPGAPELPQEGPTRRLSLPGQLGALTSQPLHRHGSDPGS

SMILES: Cc1nnc(C(C)C)n1[C@H]1C[C@H]2CC[C@@H](C1)N2CCC(CNC(=O)C1CCC(F)(F)CC1)c1ccccc1 (mixture of isomers) [listing 1 of 2 here]
IC50 ([1]; hos): 866 nM
IC50 [2]: ≥ 10000 nM

IC50 [1, 8]: 88 nM
SMILES: Cn1nc(Cc2ccccc2)cc1C1CCN(CCC(CNS(=O)(=O)c2ccccc2)c2ccccc2)CC1 (racemic)

IC50 [1, 8]: 989 nM
SMILES: Cc1nnc(C(C)C)n1C1CCN(CCC(CNS(=O)(=O)c2ccccc2)c2ccccc2)CC1 (racemic)

IC50 [1, 8]: 5020 nM
SMILES: Cc1nnc(-c2ccccc2)n1C1CCN(CCC(CNS(=O)(=O)c2ccccc2)c2ccccc2)CC1 (racemic)

IC50 [1, 8]: 45 nM
IC50 [3]: 43 nM
SMILES: CCc1nc(Cc2ccccc2)cn1C1CCN(CCC(CNS(=O)(=O)c2ccccc2)c2ccccc2)CC1 (racemic)

IC50 [1, 8]: 362 nM
SMILES: Cc1nc2ccccc2n1C1CCN(CCC(CNS(=O)(=O)c2ccccc2)c2ccccc2)CC1 (racemic)

half-life [4]: ≤ 20 min
IC50 [1, 8]: 8 nM
bioavailability [5]: 2%
half-life [6]: ≤ 20 min
IC50 [3]: 1 nM
AUC (Rattus norvegicus): 10
SMILES: Cc1cc(OS(=O)(=O)c2ccccc2)cc(C)c1C(=O)N1C[C@H]2CN(CCC(CNS(=O)(=O)c3ccccc3)c3ccccc3)C[C@H]2C1 (mixture of isomers)

SMILES: Cc1nc2ccccc2n1C1CC2CCC(C1)N2CCC(CN(C)S(=O)(=O)c1ccccc1)c1ccccc1 (racemic)
half-life [4]: ≤ 20 min
IC50 [1, 8]: 8 nM
bioavailability [5]: 5%
half-life [6]: ≤ 20 min
IC50 [3]: 60 nM
AUC (Rattus norvegicus): 40

SMILES: Cc1nc2ccccc2n1C1CC2CCC(C1)N2CCC(CNS(=O)(=O)c1ccccc1)c1ccccc1 (racemic)
IC50 [1, 8]: 65 nM
IC50 [3]: 112 nM

SMILES: Cc1nc2ccccc2n1C1CC2CCC(C1)N2CCC(CNS(=O)(=O)c1cccc(C(N)=O)c1)c1ccccc1 (racemic)
IC50 [1, 8]: 16 nM
IC50 [3]: 161 nM

SMILES: Cc1nc2ccccc2n1C1CC2CCC(C1)N2CCC(CN(C)C(=O)C1CCC(F)(F)CC1)c1ccccc1 (racemic)
IC50 [1, 8]: 520 nM

SMILES: Cc1nc2ccccc2n1C1CC2CCC(C1)N2CCC(CNC(=O)C1CCC(F)(F)CC1)c1ccccc1 (racemic)
IC50 [1, 8]: 411 nM

SMILES: Cc1nc2ccccc2n1C1CC2CCC(C1)N2CCC(CNS(C)(=O)=O)c1ccccc1 (racemic)
IC50 [1, 8]: 23 nM
IC50 [3]: 99 nM

SMILES: Cc1nc2ccccc2n1C1CC2CCC(C1)N2CCC(CNS(=O)(=O)N1CCOCC1)c1ccccc1 (racemic)
IC50 [1, 8]: 13 nM

SMILES: CC(=O)NCC(CCN1C2CCC1CC(n1c(C)nc3ccccc31)C2)c1ccccc1 (racemic)
IC50 [1, 8]: 866 nM

SMILES: COP(=O)(NCC(CCN1C2CCC1CC(n1c(C)nc3ccccc31)C2)c1ccccc1)OC (racemic)
IC50 [1, 8]: 77 nM

SMILES: Cc1nc2ccncc2n1[C@H]1C[C@H]2CC[C@@H](C1)N2CCC(CNS(=O)(=O)c1ccccc1)c1ccccc1 (mixture of isomers)
IC50 [1, 8]: 38 nM

SMILES: CC(=O)N1CCc2nc(C)n([C@H]3C[C@H]4CC[C@@H](C3)N4CCC(CNS(=O)(=O)c3ccccc3)c3ccccc3)c2C1 (mixture of isomers)
half-life [4]: ≤ 20 min
IC50 [1, 8]: 3 nM
bioavailability [5]: < 1%
half-life [6]: ≤ 20 min
IC50 [3]: 1 nM
AUC (Rattus norvegicus): 0

SMILES: Cc1nnc(C(C)C)n1[C@H]1C[C@H]2CC[C@@H](C1)N2CCC(CNC(=O)C1CCC(F)(F)CC1)c1ccccc1 (mixture of isomers) [listing 2 of 2 here]
IC50 ([1]; hos): 9740 nM

SMILES: Cc1nnc(C(C)C)n1[C@H]1C[C@H]2CC[C@@H](C1)N2CCC(CNC(=O)C1CC(F)(F)C1)c1ccccc1 (mixture of isomers)
IC50 [1, 8]: > 20000 nM

SMILES: Cc1nnc(C(C)C)n1[C@H]1C[C@H]2CC[C@@H](C1)N2CCC(CNC(=O)c1ccccc1)c1ccccc1 (mixture of isomers)
IC50 [1, 8]: > 20000 nM
IC50 [2]: ≥ 10000 nM

SMILES: Cc1nc2ccccc2n1[C@H]1C[C@H]2CC[C@@H](C1)N2CCC(C)(CN(C)S(=O)(=O)c1ccccc1)c1ccccc1 (mixture of isomers)
half-life [4]: ≤ 20 min
Papp [7]: 7 ×10⁻⁶ cm/s
IC50 [1, 8]: 9 nM
bioavailability [5]: < 1%
half-life [6]: ≤ 20 min
IC50 [3]: 1 nM
AUC (Rattus norvegicus): 0

SMILES: Cc1nc2ccccc2n1[C@H]1C[C@H]2CC[C@@H](C1)N2CCC(C)(CNS(=O)(=O)c1ccccc1)c1ccccc1 (mixture of isomers)
IC50 [1, 8]: 124 nM

SMILES: Cc1nnc(C(C)C)n1[C@@H]1C[C@H]2CC[C@@H](C1)N2CCC(C)(CNS(=O)(=O)c1ccccc1)c1ccccc1 (mixture of isomers)
IC50 [1, 8]: 578 nM

SMILES: Cc1nc2ccccc2n1[C@H]1C[C@H]2CC[C@@H](C1)N2CCC(C)(CN(C)C(=O)C1CCC(F)(F)CC1)c1ccccc1 (mixture of isomers)
IC50 [1, 8]: 235 nM

SMILES: Cc1nc2ccccc2n1[C@H]1C[C@H]2CC[C@@H](C1)N2CCC(C)(CNC(=O)C1CCC(F)(F)CC1)c1ccccc1 (mixture of isomers)
IC50 [1, 8]: 249 nM

SMILES: Cc1nnc(C(C)C)n1[C@@H]1C[C@H]2CC[C@@H](C1)N2CCC(C)(CNC(=O)C1CCC(F)(F)CC1)c1ccccc1 (mixture of isomers)
IC50 [1, 8]: 583 nM

SMILES: Cc1nc2ccccc2n1[C@@H]1C[C@H]2CC[C@@H](C1)N2CCC(CNS(=O)(=O)c1ccccc1)c1ccccc1 (mixture of isomers)
IC50 [1, 8]: 117 nM

SMILES: Cc1nnc(C(C)C)n1[C@H]1C[C@H]2CC[C@@H](C1)N2CCC(CNS(=O)(=O)c1ccccc1)c1ccccc1 (racemic; 14a)
IC50 ([1]; hos): 480 nM
IC50 [2]: ≥ 10000 nM

SMILES: Cc1nnc(C(C)C)n1[C@H]1C[C@H]2CC[C@@H](C1)N2CCC(CNS(=O)(=O)c1ccccc1)c1ccccc1 (racemic; 14b)
IC50 ([1]; hos): 146 nM
